Patent US8227207B2, “Bioactive peptides derived from the proteins of egg white by means of enzymatic hydrolysis” (Consejo Superior de Investigaciones Cientifcas, priority 2004, dated 2012)
Entries after “also recorded” stand apart in the source; their conditions may differ. Residues, ends and D or L forms follow the SMILES beside them.

Key:
Wistar-Kyoto rats (WKY) [1] = test: Systolic arterial pressure (tail cuff) in normotense Wistar-Kyoto rats; type: in vivo, rat; details: highest dose used, intragastric probe
Protocol: (§1) The effect is studied of various identified peptides and of some products containing them (for example egg white hydrolysed with pepsin for 3 hours and the fraction of it less than 3000 Da) on the arterial pressure of spontaneously hypertensive rats (SHR) and Wistar-Kyoto rats (WKY) which are the normotense controls for the SHR.
(§2) This study is conducted with SHR (10) and WKY of 17-24 weeks old and weight between 300 and 350 g, coming from Charles River Laboratories España, S. A. The rats are kept in cages of five by five and maintained at a stable temperature of 25° C. with light-dark cycles of 12 hours, ingesting freely available water and food. In order to carry out the measurement of systolic arterial pressure (SAP) “tail cuff” equipment is used (Le5001, Letica) which automatically provides a digital value of the SAP and records and facilitates the cardiac frequency of the animals. Various measurements are made and the average of all of them is obtained in order to achieve a reliable value of the SAP. Before positioning the cuff and transducer in the tail of the rats, the rats are exposed to a temperature of close to 30° C. in order to facilitate dilation of the caudal artery. Also, in order to ensure the reliability of the measurement, the animals are made to get used to the procedure for two weeks prior to conducting each assay in question.
(§3) The administration of the products to be assayed is done by means of an intragastric probe in a time margin of between 9 and 10 o'clock in the morning. The SHR used for the study had SAP values of between 230 and 280 mm Hg. The WKY used for the study at that moment had SAP values of between 160 and 200 mm Hg. Measurements of the SAP were taken from the animals periodically, every 2 hours, up to 8 hours post-administration of the products to be assayed; in addition, a SAP measurement was taken 24 hours after the administration of those products. As negative control (in order to establish the circadian variation of the SAP in probed rats) the measurements of the SAP obtained in rats which had been administered 1 ml of water by means of intragastric probe were used. As positive control, the measurements of the SAP obtained in rats which had been administered 50 mg/kg of Captopril (prototype ACEI drug) by means of intragastric probe were used. This dose of Captopril was administered to each rat in a volume of 1 ml. In order to establish the effect of the unhydrolysed egg white on the arterial pressure of the animals, similar assays to those described above were conducted, in which the animals were treated by the same procedure with 200 mg/kg of previously freeze-dried egg white (reference).
The results obtained are grouped and the mean±the standard error of measurement (SEM) is obtained for a minimum of 9 homogenous assays. […]

Wistar-Kyoto rats (WKY) [2] = test: Effect on systolic arterial pressure (SAP) in normotense Wistar-Kyoto rats; type: in vivo, rat; details: intragastric probe, highest dose used: SEQ. ID. No 6 and 3 2 mg/kg, SEQ. ID. No 2 4 mg/kg, Captopril 50 mg/kg
Protocol: (§4) The effect is studied of various identified peptides and of some products containing them (for example egg white hydrolysed with pepsin for 3 hours and the fraction of it less than 3000 Da) on the arterial pressure of spontaneously hypertensive rats (SHR) and Wistar-Kyoto rats (WKY) which are the normotense controls for the SHR. This study is conducted with SHR (10) and WKY of 17-24 weeks old and weight between 300 and 350 g, coming from Charles River Laboratories […]. The rats are kept in cages of five by five and maintained at a stable temperature of 25° C. with light-dark cycles of 12 hours, ingesting freely available water and food. In order to carry out the measurement of systolic arterial pressure (SAP) “tail cuff” equipment is used (Le5001, Letica) which automatically provides a digital value of the SAP and records and facilitates the cardiac frequency of the animals. Various measurements are made and the average of all of them is obtained in order to achieve a reliable value of the SAP. Before positioning the cuff and transducer in the tail of the rats, the rats are exposed to a temperature of close to 30° C. in order to facilitate dilation of the caudal artery. Also, in order to ensure the reliability of the measurement, the animals are made to get used to the procedure for two weeks prior to conducting each assay in question. The administration of the products to be assayed is done by means of an intragastric probe in a time margin of between 9 and 10 o'clock in the morning. The SHR used for the study had SAP values of between 230 and 280 mm Hg. The WKY used for the study at that moment had SAP values of between 160 and 200 mm Hg. Measurements of the SAP were taken from the animals periodically, every 2 hours, up to 8 hours post-administration of the products to be assayed; in addition, a SAP measurement was taken 24 hours after the administration of those products. As negative control (in order to establish the circadian variation of the SAP in probed rats) the measurements of the SAP obtained in rats which had been administered 1 ml of water by means of intragastric probe were used. […] This dose of Captopril was administered to each rat in a volume of 1 ml. In order to establish the effect of the unhydrolysed egg white on the arterial pressure of the animals, similar assays to those described above were conducted, in which the animals were treated by the same procedure with 200 mg/kg of previously freeze-dried egg white (reference). The results obtained are grouped and the mean±the standard error of measurement (SEM) is obtained for a minimum of 9 homogenous assays. The data of the treated animals are always compared with the data deemed to be a negative control. […]

[3] = tested on: spontaneously hypertensive rats (SHR); test: Antihypertensive activity: systolic arterial pressure (tail cuff) in spontaneously hypertensive rats; type: in vivo, rat
Protocol: as §1, §2, §3
The results obtained are grouped and the mean±the standard error of measurement (SEM) is obtained for a minimum of 9 homogenous assays. The data of the treated animals are always compared with the data deemed to be a negative control. In order to compare them and obtain the statistical significance, Student's t-test for unpaired data is used and the difference for values of p<0.05 is considered significant.

[4] = tested on: spontaneously hypertensive rats (SHR); test: Anti-hypertensive activity, systolic arterial pressure (SAP), in spontaneously hypertensive rats; type: in vivo, rat; details: oral, intragastric probe, Captopril 50 mg/kg, SEQ. ID. No 6 and 3 0.5-2 mg/kg, SEQ. ID. No 2 1-4 mg/kg
Protocol: as §4

[5] = tested on: spontaneously hypertensive rats (SHR); details: literature, cited from earlier work; for anti-hypertensive activity relative to ovokinin (2-7): following administration to SHRs
[6] = tested on: spontaneously hypertensive rats (SHR); details: ovokinin oral 100 mg/kg, ovokinin (2-7) 10 mg/kg; cited from earlier work
[7] = tested on: angiotensin converting enzyme (ACE); details: result in words, literature; cited from earlier work
[8] = tested on: angiotensin converting enzyme (ACE) (EC 3.4.15.1, Sigma); test: In vitro inhibitory activity of the angiotensin converting enzyme (ACEI activity); type: biochemical; details: result in words
Protocol: Measurement of the Inhibitory Activity of the Angiotensin Converting Enzyme (ACEI Activity)
The inhibitory activity of the angiotensin converting enzyme (ACE) is measured in vitro according to the method of D. W. Cushman and H. S. Cheung (Spectrophotometric assay and properties of the angiotensin-converting enzyme of rabbit lung. Biochemical Pharmacology, 1971, 20: 1637-1648), later on modified by Y. K. Kim, S. Yoon, D. Y. Yu, B. Lönnerdal and B. H. Cheung (Novel angiotensin-I-converting enzyme inhibitory peptides derived from recombinant human αs1-casein expressed in Escherichia coli, Journal of Dairy Research 1999, 66, 431-439).
The substrate hippuryl histidyl leucine (HHL, Sigma Chemicals Co., St. Louis, Mo., USA) is dissolved in a 0.1 M borate buffer with 0.3 M NaCl pH 8.3 to obtain a final concentration of 5 mM. To 100 μl of substrate are added 40 μl of each of the samples whose ACEI activity it is wished to determine. The ACE enzyme (EC 3.4.15.1, Sigma) is added, dissolved in 50% glycerol and diluted 1/10 in bidistilled water at the moment of conducting the assay. The reaction is carried out at 37° C. for 30 minutes in a water-bath. The enzyme is deactivated by lowering the pH with 150 μl of 1 N HCl. The hippuric acid formed is extracted with 1000 μl of ethyl acetate. Following vortex stirring for 20 seconds, it is centrifuged at 4000 rpm for 10 minutes at room temperature. 750 μl of the organic phase are taken and evaporated by heating at 95° C. for 10 minutes. The hippuric acid residue is redissolved in 800 μl of bidistilled water and, following stirring for 20 seconds, the absorbency at 228 nm is measured in a Dur-70 spectrophotometer from Beckman Instruments, Inc., Fullerton, USA.
In order to calculate the percentage of ACEI activity, the following formula is used
The blank is used for correcting the background absorbency. This contains substrate, enzyme and 20 μl of bidistilled water in place of the sample, and the reaction is halted at zero time. The control implies a hundred percent of the enzymatic action on the substrate in the absence of inhibitors and contains 20 μl of water in place of the sample and is incubated the same time as the sample.
The results are presented as the IC50 (μM or μg/ml) or concentration at which 50% of the enzyme's activity is inhibited. The concentration of protein is determined by means of the bicinchonomic acid (BCA) assay (Pierce, Rockford, Ill., USA) using bovine seroalbumin as reference.

SMILES | effect on SAP (Wistar-Kyoto rats (WKY) [2]) | anti-hypertensive activity / drop in SAP [4] | ACEI activity [7] | ACEI activity in vitro [8] | further results
C[C@H](CS)C(=O)N1CCC[C@H]1C(=O)O [Captopril, reference compound] | none of these compounds modifies the SAP of WKY rats | pronounced drop in SAP in the SHR | – | – | change in SAP in normotense rats (in words) (Wistar-Kyoto rats (WKY) [1]): none of these compounds modifies the SAP; time of maximum drop in SAP after administration ([3]; intragastric probe): 6 h; drop in systolic arterial pressure (SAP) / anti-hypertensive activity (in words) ([3]; single administration by intragastric probe): pronounced drop in SAP
CC(C)C[C@H](N)C(=O)N[C@@H](Cc1c[nH]c2ccccc12)C(=O)O [LW] | – | – | – | – | anti-hypertensive activity ([5]; SHR, ovokinin orally 100 mg/kg): displayed anti-hypertensive activity in spontaneously hypertensive rats (SHR); anti-hypertensive / vasodilatory activity in SHR (in words) [6]: displayed anti-hypertensive activity
N=C(N)NCCC[C@H](N)C(=O)N1CCC[C@H]1C(=O)N[C@@H](Cc1ccccc1)C(=O)N[C@@H](Cc1cnc[nH]1)C(=O)N1CCC[C@H]1C(=O)N[C@@H](Cc1ccccc1)C(=O)O [RPFHPF] (H-RPFHPF-OH) | – | – | neither ovokinin (2-7), nor its RPFHPF (SEQ. ID. NO: 10) or RPLKPW (SEQ. ID. NO: 11) derivatives possessed ACEI activity | – | minimum effective dose ([5]; SHR): 1 mg/kg; anti-hypertensive activity relative to ovokinin (2-7) [5]: 10 times
CC(C)C[C@H](NC(=O)[C@@H]1CCCN1C(=O)[C@@H](N)CCCNC(=N)N)C(=O)N[C@@H](CCCCN)C(=O)N1CCC[C@H]1C(=O)N[C@@H](Cc1c[nH]c2ccccc12)C(=O)O [RPLKPW] (H-RPLKPW-OH) | – | – | neither ovokinin (2-7), nor its RPFHPF (SEQ. ID. NO: 10) or RPLKPW (SEQ. ID. NO: 11) derivatives possessed ACEI activity | – | minimum effective dose ([5]; SHR): 0.1 mg/kg; anti-hypertensive activity relative to ovokinin (2-7) [5]: 100 times
CC[C@H](C)[C@H](N)C(=O)N[C@H](C(=O)N[C@@H](Cc1ccccc1)C(=O)O)C(C)C [SEQ. ID. No 2, IVF] | none of these compounds modifies the SAP of WKY rats | possess anti-hypertensive activity in spontaneously hypertensive rats (SHR); also recorded: display anti-hypertensive activity in rats | – | potent ACEI activity in vitro | –
CC(C)C[C@H](NC(=O)[C@H](Cc1ccccc1)NC(=O)[C@@H]1CCCN1C(=O)[C@H](Cc1cnc[nH]1)NC(=O)[C@H](CC(=O)O)NC(=O)[C@H](C)NC(=O)[C@@H](N)CCCNC(=N)N)C(=O)O [SEQ. ID. No 3, RADHPFL] (H-RADHPFL-OH) | none of these compounds modifies the SAP of WKY rats | possess anti-hypertensive activity in spontaneously hypertensive rats (SHR); also recorded: display anti-hypertensive activity in rats | – | potent ACEI activity in vitro | –
CC[C@H](C)[C@H](NC(=O)[C@@H]1CCCN1C(=O)[C@H](Cc1ccc(O)cc1)NC(=O)[C@H](CCCNC(=N)N)NC(=O)[C@H](CCC(=O)O)NC(=O)[C@H](CCC(=O)O)NC(=O)[C@H](C)NC(=O)[C@@H](N)Cc1ccc(O)cc1)C(=O)N[C@@H](CC(C)C)C(=O)O [SEQ. ID. No 6] (H-YAEERYPIL-OH) | none of these compounds modifies the SAP of WKY rats | possess anti-hypertensive activity in spontaneously hypertensive rats (SHR); also recorded: display anti-hypertensive activity in rats | – | potent ACEI activity in vitro | –
C[C@H](NC(=O)[C@@H](N)CCCNC(=N)N)C(=O)N[C@@H](CC(=O)O)C(=O)N[C@@H](Cc1cnc[nH]1)C(=O)N1CCC[C@H]1C(=O)N[C@@H](Cc1ccccc1)C(=O)O [ovokinin (2-7), RADHPF] (H-RADHPF-OH) | – | – | neither ovokinin (2-7), nor its RPFHPF (SEQ. ID. NO: 10) or RPLKPW (SEQ. ID. NO: 11) derivatives possessed ACEI activity | – | vasodilatory action ([5]; SHR, doses of 10 mg/kg): potent vasodilatory action in SHR; anti-hypertensive / vasodilatory activity in SHR (in words) [6]: exerted a potent vasodilatory action
